# Test results taken from patent US10005774B2, “Syk inhibitors” (Gilead Sciences, Inc., priority 2013, dated 2018).
# pIC50: −log10 of the molar value.
# Molecular target: Syk (Homo sapiens, UniProt P43405)
# Test: High Throughput Syk Biochemical Assay (KinEASE TR-FRET)
# Details: TABLE D, 20 μM ATP, 1 μM biotinylated peptide, 0.015 nM Syk, 30 min at room temperature, read-out: IC50
# Outline: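 Two-step endpoint TR-FRET (KinEASE) measured Syk phosphorylation of an XL665-labelled peptide, detected with europium anti-phosphotyrosine antibody. Compounds were serially diluted in DMSO.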
row,Compound,pIC50
1,"COCC[C@@H](Oc1nc(-c2cnn(C(C)(C)C)c2)cc2ncn(C)c12)[C@H]1CNC(=O)C1 [(R)-4-((R)-1-(6-(1-tert-butyl-1H-pyrazol-4-yl)-3-methyl-3H-imidazo[4,5-c]pyridin-4-yloxy)-3-methoxypropyl)pyrrolidin-2-one]",6.77
2,"CC[C@@H](Oc1nc(-c2cnn(C(C)(C)C)c2)cc2ncn(C)c12)[C@H]1CNC(=O)C1 [(R)-4-((R)-1-(6-(1-tert-butyl-1H-pyrazol-4-yl)-3-methyl-3H-imidazo[4,5-c]pyridin-4-yloxy)propyl)pyrrolidin-2-one]",7.62
3,"C[C@@H](Oc1nc(-c2ccc3c(c2)OC(F)(F)O3)cc2ncn(C)c12)[C@H]1CNC(=O)C1 [(R)-4-((R)-1-(6-(2,2-difluorobenzo[d][1,3]dioxol-5-yl)-3-methyl-3H-imidazo[4,5-c]pyridin-4-yloxy)ethyl)pyrrolidin-2-one]",6.83
4,"C[C@@H](Oc1nc(-c2csc(C(C)(C)C)n2)cc2ncn(C)c12)[C@H]1CNC(=O)C1 [(R)-4-((R)-1-(6-(2-tert-butylthiazol-4-yl)-3-methyl-3H-imidazo[4,5-c]pyridin-4-yloxy)ethyl)pyrrolidin-2-one]",7.71
5,"C[C@@H](Oc1nc(-c2cnc(C(C)(C)C)s2)cc2ncn(C)c12)[C@H]1CNC(=O)C1 [(R)-4-((R)-1-(6-(2-tert-butylthiazol-5-yl)-3-methyl-3H-imidazo[4,5-c]pyridin-4-yloxy)ethyl)pyrrolidin-2-one]",8.01
6,"COc1ccc(-c2cc3ncn(CC(F)(F)F)c3c(O[C@H](C)[C@H]3CNC(=O)C3)n2)cc1OC [(R)-4-((R)-1-(6-(3,4-dimethoxyphenyl)-3-(2,2,2-trifluoroethyl)-3H-imidazo[4,5-c]pyridin-4-yloxy)ethyl)pyrrolidin-2-one]",7.29
7,"COc1ccc(-c2cc3ncn(C4COC4)c3c(O[C@H](C)[C@H]3CNC(=O)C3)n2)cc1OC [(R)-4-((R)-1-(6-(3,4-dimethoxyphenyl)-3-(oxetan-3-yl)-3H-imidazo[4,5-c]pyridin-4-yloxy)ethyl)pyrrolidin-2-one]",7.27
8,"COc1ccc(-c2cc3nc(C)n(C(C)C)c3c(O[C@H](C)[C@H]3CNC(=O)C3)n2)cc1OC [(R)-4-((R)-1-(6-(3,4-dimethoxyphenyl)-3-isopropyl-2-methyl-3H-imidazo[4,5-c]pyridin-4-yloxy)ethyl)pyrrolidin-2-one]",6.50
9,"COc1ccc(-c2cc3ncn(C)c3c(O[C@H](C)[C@H]3CNC(=O)C3)n2)cc1OC [(R)-4-((R)-1-(6-(3,4-dimethoxyphenyl)-3-methyl-3H-imidazo[4,5-c]pyridin-4-yloxy)ethyl)pyrrolidin-2-one]",8.29

# These reach a higher pIC50. Values come first.
row,pIC50,Compound
1,8.31,"C[C@@H](Oc1nc(-c2cnn(C(C)(C)C)c2)cc2ncn(C)c12)[C@H]1CNC(=O)C1 [(R)-4-((R)-1-(6-(1-tert-butyl-1H-pyrazol-4-yl)-3-methyl-3H-imidazo[4,5-c]pyridin-4-yloxy)ethyl)pyrrolidin-2-one]"
2,8.39,"C[C@@H](Oc1nc(-c2ccc3c(c2)NCCO3)cc2ncn(C)c12)[C@H]1CNC(=O)C1 [(R)-4-((R)-1-(6-(3,4-dihydro-2H-benzo[b][1,4]oxazin-6-yl)-3-methyl-3H-imidazo[4,5-c]pyridin-4-yloxy)ethyl)pyrrolidin-2-one]"
3,8.60,"COc1ccc(-c2cc3ncn(CF)c3c(O[C@H](C)[C@H]3CNC(=O)C3)n2)cc1OC [(R)-4-((R)-1-(6-(3,4-dimethoxyphenyl)-3-(fluoromethyl)-3H-imidazo[4,5-c]pyridin-4-yloxy)ethyl)pyrrolidin-2-one]"
4,8.52,"CCn1cnc2cc(-c3ccc(OC)c(OC)c3)nc(O[C@H](C)[C@H]3CNC(=O)C3)c21 [(R)-4-((R)-1-(6-(3,4-dimethoxyphenyl)-3-ethyl-3H-imidazo[4,5-c]pyridin-4-yloxy)ethyl)pyrrolidin-2-one]"
5,8.47,"COc1ccc(-c2cc3ncn(C(C)C)c3c(O[C@H](C)[C@H]3CNC(=O)C3)n2)cc1OC [(R)-4-((R)-1-(6-(3,4-dimethoxyphenyl)-3-isopropyl-3H-imidazo[4,5-c]pyridin-4-yloxy)ethyl)pyrrolidin-2-one]"
